Measurements from patent publication US20170058314A1, “NOVEL METHODOLOGY FOR IDENTIFYING ANTI-PERSISTER ACTIVITY AND ANTIMICROBIAL SUSCEPTIBILITY FOR BORRELIA BURGDORFERI AND OTHER BACTERIA” (priority 2014, published 2017).
In brackets after ≈: the same amount, converted by molar mass. Where two headings read alike, the source gives them in different places.

Key:
[1] = test system: B. burgdorferi (growing, strain B31); experiment: MIC determination, standard microdilution method; type: cell-based, Borrelia burgdorferi; settings: for sensitivity of log phase / multiplying B. burgdorferi (words, FIG. 12): MIC test; for MIC: Borreliella burgdorferi, growing B. burgdorferi, read-out: MIC
[2] = test system: log phase and stationary phase B. burgdorferi culture; experiment: Antibiotic exposure assay, SYBR Green I/PI (drugs alone and combinations); settings: for Live cell %, ten day old stationary phase culture (in brackets): 10 μg/mL drugs or combinations; for viability at 10 µg/mL: Borreliella burgdorferi, 168 h
Protocol: (§1) To qualitatively determine the effect of antibiotics, 10 μL of each compound from the pre-diluted plate or pre-diluted stock was added to stationary phase B. burgdorferi culture in the 96-well plate. The final volume per well was adjusted to 100 μL at a concentration of 10 μg/mL for each antibiotic. Plates were sealed and placed in a 33° C. incubator for 7 days. The SYBR Green I/PI viability assay was used to assess the live and dead cells after antibiotic exposure as described (Feng, Wang, Shi, et al., 2014). Briefly, 10 μL of SYBR Green I (10,000×stock, Invitrogen) was mixed with 30 μL propidium iodide (PI, 20 mM) into 1.0 mL of sterile dH2O. Then, 10 μL of staining mixture was added to each well and mixed thoroughly. The plates were incubated at room temperature in the dark for 15 minutes followed by plate reading at excitation wavelength at 485 nm and the fluorescence intensity at 535 nm (green emission) and 635 nm (red emission) in microplate reader (HTS 7000 plus Bio Assay Reader, PerkinElmer Inc., USA). With least-square fitting analysis, the regression equation and regression curve of the relationship between percentage of live bacteria and green/red fluorescence ratios was obtained. The regression equation was used to calculate the percentage of live cells in each well of the 96-well plate.
To qualitatively determine the effect of antibiotics, 10 μL of each compound (final concentration 50 μM) from the pre-diluted plate or pre-diluted stock was added to round body form or stationary phase B. burgdorferi culture in the 96-well plate. The final volume per well was adjusted to 100 μL. Plates were sealed and placed in a 33° C. incubator for 7 days. The SYBR Green I/PI viability assay was used to assess the live and dead cells after antibiotic exposure as described (Feng, Wang, Shi, et al., 2014). Briefly, 10 μL of SYBR Green I (10,000×stock, Invitrogen) was mixed with 30 μL propidium iodide (PI, 20 mM, Sigma-Aldrich) into 1.0 mL of sterile dH2O. Then, 10 μL staining mixture was added to each well and mixed thoroughly. The plates were incubated at room temperature in the dark for 15 minutes followed by plate reading at excitation wavelength at 485 nm and the fluorescence intensity at 535 nm (green emission) and 635 nm (red emission) in microplate reader (HTS 7000 plus Bio Assay Reader, PerkinElmer Inc., USA). With least-square fitting analysis, the regression equation and regression curve of the relationship between percentage of live and dead bacteria as shown in green/red fluorescence ratios was obtained. The regression equation was used to calculate the percentage of live cells in each well of the 96-well plate.
Round body form and ten day old stationary phase (in brackets) B. burgdorferi culture was treated with 10 μg/mL drugs or their combinations for 7 days. Residual viable B. burgdorferi was calculated according to the regression equation and ratio of Green/Red fluorescence obtained by SYBR Green I/PI assay as described (Feng, Wang, Shi, et al., 2014). Direct microscopy counting was employed to rectify the results of the SYBR Green I/PI assay. […] Abbreviation: Dox, doxcycline; CefP, cefoperazone; DAP, daptomycin; CefM, cefmetazole; Scp, sulfachlorpyridazine; Art, artemisinin; Nft, nitrofurantoin.

[3] = test system: B. burgdorferi log and stationary phase cultures; experiment: epi-fluorescence microscope counting after antibiotic exposure (persister frequency, planktonic forms); type: cell-based, Borrelia burgdorferi; settings: 10-day-old stationary phase culture, 10 μg/mL, 7 days, FIG. 17A
Protocol: Specimens were examined on a Nikon Eclipse E800 microscope equipped with differential interference contrast (DIC) and epi-fluorescence illumination, and recorded with a Spot slider color camera. Cell proliferation assays were performed by direct counting using a bacterial counting chamber (Hausser Scientific Partnership) and DIC microscopy. SYBR Green I/PI assay was performed to assess the viability of B. burgdorferi. The ratio of live (green) and dead (red) B. burgdorferi was calculated by counting these cells using a bacterial counting chamber and epi-fluorescence microscopy. The three representative images of every sample were captured for quantitative analysis. Image Pro-Plus software was applied for measuring the biomass (fluorescence intensity) of different forms (spirochetes, round body, and microcolony) of B. burgdorferi as previously described (Shopov and Williams, 2000).
as §1
Therefore, the frequency of B. burgdorferi persisters in log phase and stationary phase cultures was assessed using the SYBR Green I/PI viability assay after exposure of the cultures to antimicrobials. E. coli culture was used as a control after exposure to antibiotics to validate the SYBR Green I/PI viability assay for persister frequency assessment.

[4] = test system: stationary phase B. burgdorferi; experiment: Subculture test of drug-treated stationary phase B. burgdorferi; type: cell-based, Borrelia burgdorferi; settings: for G/R ratio immediately after treatment / G/R ratio after 7 day subculture / G/R ratio after 15 day subculture / Spirochetes after 7 day subculture (microscope counting) / Spirochetes after 15 day subculture (microscope counting): 10 μg/mL; for G/R ratio immediately after treatment: 7 days; for G/R ratio after 7 day subculture / G/R ratio after 15 day subculture / Spirochetes after 7 day subculture (microscope counting) / Spirochetes after 15 day subculture (microscope counting): 7 days treatment, then subculture; for viability at 10 µg/mL: Borreliella burgdorferi, 168 h, read-out: Residual viable cells (epifluorescence microscope counting)
Protocol: Seven-day-old B. burgdorferi culture (1×10^7 spirochetes/mL) (500 μL) was treated with drugs or drug combinations in Eppendorf tubes. After incubation at 33° C. for 7 days without shaking, the cells were collected by centrifugation and rinsed with 1 mL fresh BSK-H medium followed by resuspension in 500 μL fresh BSK-H medium without antibiotics. Then 50 μL of cell suspension was transferred to 1 mL fresh BSK-H medium for subculture at 33° C. for 2 weeks. Cell proliferation was assessed using SYBR Green I/PI assay and bacterial counting chamber (Hausser Scientific Partnership) by microscopy as described above.

[5] = test system: round body form of B. burgdorferi; experiment: Subculture test of drug-treated round body form; settings: for Spirochetes number After 10 day subculture / Spirochetes number After 20 day subculture: 10 μg/mL, 7 days treatment, then subculture; for viability at 10 µg/mL: Borreliella burgdorferi, 168 h, read-out: Residual viable cells
Protocol: For induction of round body form of B. burgdorferi, B. burgdorferi spirochetes (1×10^5 spirochetes/mL) were cultured in BKS-H medium for 6 days without shaking. After the 6-day incubation, amoxicillin at a final concentration of 50 μg/mL was added to the culture for round body form induction. After 72 h induction at 33° C., the round body forms of B. burgdorferi were examined by the microscopy. The round body cells (100 μL) were transferred to 96-well tissue culture microplates for evaluation of the effects of antibiotic treatment.

[6] = test system: round body form of B. burgdorferi; experiment: SYBR Green I/PI assay on amoxicillin-induced round body form; settings: for Live cell %, round body form: 10 μg/mL drugs or combinations; for Live cell %, round body form / Ratios of green/red fluorescence, Primary screening / Ratios of green/red fluorescence, Rescreening (first column) / Ratios of green/red fluorescence, Rescreening (second column): 7 days; for viability at 50 µM: Borreliella burgdorferi, 168 h, read-out: Residual viable cells (SYBR Green I/PI assay); for Ratios of green/red fluorescence, Primary screening / Ratios of green/red fluorescence, Rescreening (first column) / Ratios of green/red fluorescence, Rescreening (second column): round body form, 50 μM
[7] = test system: stationary phase B. burgdorferi persisters (strain B31); experiment: SYBR Green I/PI viability assay (plate reader), FDA-approved drug library screen; settings: for Ratio of Green/Red fluorescence, Primary screening / Ratio of Green/Red fluorescence, Rescreening (first column) / Ratio of Green/Red fluorescence, Rescreening (second column): 50 μM, 7 days, stationary phase; for viability at 50 µM: Borreliella burgdorferi, 168 h, read-out: Residual viable cells (regression equation, SYBR Green I/PI assay)
[8] = test system: stationary phase B. burgdorferi persisters (strain B31); experiment: epifluorescence microscope counting after SYBR Green I/PI staining, FDA drug screen; settings: Borreliella burgdorferi, 168 h, read-out: Residual viable cells (epifluorescence microscope counting)
[9] = test system: B. burgdorferi (growing, strain B31); settings: actively growing B. burgdorferi; Feng, Wang, Shi, et al., 2014; cited from earlier work
[10] = test system: stationary phase B. burgdorferi persisters (strain B31); experiment: NCI compound library screen, SYBR Green I/PI assay (plate reader); settings: Borreliella burgdorferi, 168 h
[11] = test system: stationary phase B. burgdorferi persisters (strain B31); experiment: NCI compound library rescreen, epifluorescence microscope counting; settings: Borreliella burgdorferi, 168 h
[12] = read-out: Live Cell % (residual viable B. burgdorferi), ten-day-old stationary phase culture enriched with micro-colonies, 10 μg/mL each drug, 7 days

Structure (SMILES)	sensitivity of log phase / multiplying B. burgdorferi (words, FIG. 12) [1]	Live cell %, ten day old stationary phase culture (in brackets) ([2]; 7 days) [%]	viability at 10 µg/mL [2, 12] [%]	G/R ratio immediately after treatment [4]	G/R ratio after 7 day subculture [4]	G/R ratio after 15 day subculture [4]	Spirochetes after 7 day subculture (microscope counting) [4]	Spirochetes after 15 day subculture (microscope counting) [4]	viability at 10 µg/mL [4] [%]	Spirochetes number After 10 day subculture [5]	Spirochetes number After 20 day subculture [5]	viability at 10 µg/mL [5] [%]	Live cell %, round body form [6] [%]	Ratio of Green/Red fluorescence, Primary screening [7]	Ratio of Green/Red fluorescence, Rescreening (first column) [7]	Ratio of Green/Red fluorescence, Rescreening (second column) [7]	viability at 50 µM [7] [%]	viability at 50 µM [8] [%]	MIC [1] [µg/mL]	MIC (previous study) [9] [µg/mL]	other results
CCN1CCN(C(=O)N[C@@H](C(=O)N[C@@H]2C(=O)N3C(C(=O)O)=C(CSc4nnnn4C)CS[C@H]23)c2ccc(O)cc2)C(=O)C1=O [Cefoperazone]	very sensitive	64	64	6.60	6.13	6.95	1.5 × 10^6	5 × 10^6	61	9 × 10^5	4 × 10^6	33	30	6.54	6.32	6.23	34	37	–	–	planktonic form cells remaining green (live) [3]: 52%
CC(C)/N=c1\cc2n(-c3ccc(Cl)cc3)c3ccccc3nc-2cc1Nc1ccc(Cl)cc1 [Clofazimine]	less potent	–	–	–	–	–	–	–	–	–	–	–	–	6.56	6.23	6.02	32	45	6.25 (≈ 13.2 µM)	6.25 (≈ 13.2 µM)	viability at 10 µg/mL ([2]; read-out: Live Cell % (residual viable B. burgdorferi)): 73%; viability at 50 µM [6]: 32%; Ratios of green/red fluorescence, Primary screening [6]: 6.29; Ratios of green/red fluorescence, Rescreening (first column) [6]: 6.22; Ratios of green/red fluorescence, Rescreening (second column) [6]: 6.24
CCCCCCCCCC(=O)N[C@@H](Cc1c[nH]c2ccccc12)C(=O)N[C@H](CC(N)=O)C(=O)N[C@@H](CC(=O)O)C(=O)N[C@@H]1C(=O)NCC(=O)N[C@@H](CCCN)C(=O)N[C@@H](CC(=O)O)C(=O)N[C@H](C)C(=O)N[C@@H](CC(=O)O)C(=O)NCC(=O)N[C@H](CO)C(=O)N[C@@H]([C@H](C)CC(=O)O)C(=O)N[C@@H](CC(=O)c2ccccc2N)C(=O)O[C@@H]1C [Daptomycin]	–	48	48	5.85	7.01	7.11	3.1 × 10^6	5 × 10^6	55	5 × 10^5	5 × 10^6	18	17	6.10	6.20	6.09	28	35	12.5 to 25 (≈ 7.71 to 15.4 µM)	12.5 to 25	Live Cell % (residual viable B. burgdorferi) ([2]; Borrelia burgdorferi, 7 days, 10 μg/mL): 52%; viability at 50 µM [6]: 19%; Ratios of green/red fluorescence, Primary screening [6]: 5.90; Ratios of green/red fluorescence, Rescreening (first column) [6]: 6.09; Ratios of green/red fluorescence, Rescreening (second column) [6]: 5.93; viability at 20 µM ([10]; read-out: Residual viable cells (%) 20 μM (SYBR Green I/PI assay), 20 μM, seven day old stationary phase, 7 days): 32%; viability at 50 µM ([10]; read-out: Residual viable cells (SYBR Green I/PI assay), 50 μM, seven day old stationary phase culture, 7 days): 23%; viability at 50 µM ([11]; read-out: Activity against persisters (residual viable cell percentage)): 18%; viability at 20 µM ([11]; read-out: Residual viable cells (%) 20 μM (epifluorescence microscope counting)): 25%; viability at 50 µM ([11]; read-out: Residual viable cells (%) 50 μM (epifluorescence microscope counting)): 18%; viability at 50 µM ([11]; read-out: Residual viable cells (epifluorescence microscope counting)): 18%
